ChEMBL document CHEMBL5532675, “Discovery of 4-Ethoxy-6-chloro-5-azaindazoles as Novel PDE4 Inhibitors for the Treatment of Alcohol Use Disorder and Alcoholic Liver Diseases” (J Med Chem, 2024)
Active and inactive are the calls of the source. The calls are words filed in the database; no cut-off is given here.

How the values were obtained:
Mus musculus [1] = experiment: (§1) Protection against alcoholic liver disease in NIAAA C57BL/6J mouse model assessed as reduction in serum TNF-alpha level at 1 to 2.5 mg/kg, po preadministered with 1 to 4 % of alcohol for 10 days with subsequent compound addition from day 6 to 11 and further administered with 31.25 % alcohol on day 11 and measured after 9 hrs by ELISA; format: functional, organism-based; conditions: dose 1-2.5 mg/kg, time 5.0 day
[2] = target: T1, 3',5'-cyclic-AMP phosphodiesterase 4D (Homo sapiens, UniProt Q08499); experiment: Inhibition of PDE4D7 (unknown origin) using FAM-cyclic-3',5'-AMP as substrate incubated for 1 hrs by fluorescence polarization based IMAP assay
Mus musculus [3] = experiment: Protection against alcohol use disorder in C57BL/6J mouse model assessed as decrease in alcohol intake at 1 to 2.5 mg/kg, po pre-trained with alcohol and water for 42 days with subsequent compound addition on day 22 and measured after 3 weeks by two-bottle choice test; format: functional, organism-based; conditions: dose 1-2.5 mg/kg
Mus musculus [4] = experiment: as §1, with “liver” for “serum”, “TNF-alpha mRNA” for “TNF-alpha”, “RT-qPCR analysis” for “ELISA”; format: functional, organism-based; conditions: dose 1-2.5 mg/kg, time 5.0 day
Mus musculus [5] = experiment: as §1, with “improvement of steatosis” for “reduction in serum TNF-alpha level”, “H&E staining based light microscopic analysis” for “ELISA”; format: functional, organism-based; conditions: dose 1-2.5 mg/kg, time 5.0 day
[6] = target: T1, 3',5'-cyclic-AMP phosphodiesterase 4D; experiment: Inhibition of PDE4D7 (unknown origin) using FAM-cyclic-3',5'-AMP as substrate at 100 nM incubated for 1 hrs by fluorescence polarization based IMAP assay relative to control
Mus musculus [7] = experiment: (§2) Protection against alcohol-induced motor impairment in C57BL/6J mouse model assessed as decrease in resting time at 1 to 2.5 mg/kg, po preadministered with compound every 24 hrs for 3 times followed by alcohol administration 30 mins post last dose and further treated with compound for 3 days followed by alcohol administration 30 mins post last dose and measured at 2 to 20 mins by open field test; format: functional, organism-based; conditions: dose 1-2.5 mg/kg, time 8702-8720 min
[8] = Drug concentration in Sprague-Dawley rat brain at 10 mg/kg, po administered as single dose for 2 hrs by LC-MS analysis; format: ADME, organism-based; conditions: read-out: Ct
Mus musculus [9] = experiment: as §1, with “improvement of steatosis” for “reduction in serum TNF-alpha level”, “Oil Red O staining based light microscopic analysis” for “ELISA”; format: functional, organism-based; conditions: dose 1-2.5 mg/kg, time 5.0 day
[10] = Toxicity in ketamine/xylazine-induced anesthetic C57BL/6J mouse model assessed as emetogenic potential by measuring reduction in anesthesia duration at 1 to 5 mg/kg, po preadministered with compound for 15 mins followed by ketamine/xylazine administration; format: organism-based; conditions: in vivo, 0.25 h, dose 1-5 mg/kg
[11] = Chemical stability of compound in aqueous solution at pH >10 measured after 48 hrs; format: physicochemical; conditions: buffer
[12] = Acute toxicity in C57BL/6J mouse assessed as druggability at 1 g/Kg, po administered for 14 days; format: organism-based; conditions: in vivo, 1000 mg/kg, 336 h, time 14 day
[13] = Half-life in Sprague-Dawley rat at 2 mg/kg, iv measured after 24 hrs by LC-MS analysis; format: ADME, organism-based; conditions: in vivo
Mus musculus [14] = experiment: as §1, with “decrease” for “reduction”, “liver index” for “serum TNF-alpha level”, “at” for “at 1 to”, “hrs” for “hrs by ELISA”; format: functional, organism-based; conditions: time 5.0 day
Mus musculus [15] = experiment: Protection against alcohol use disorder in C57BL/6J mouse model assessed as decrease in alcohol intake at 1 to 2.5 mg/kg, po pre-trained with alcohol and water for 42 days with subsequent compound addition from day 22 to day 42 followed by 3.5 hrs of darkness and compound administration for 30 mins followed by water replacement with alcohol for 4 hrs on day 46 by Drink-in-Dark test; format: functional, organism-based; conditions: dose 1-2.5 mg/kg, time 23.0 day
[16] = Selectivity ratio for inhibition of PDE7A (unknown origin) using FAM-cyclic-3',5'-AMP as substrate to inhibition of PDE4D7 (unknown origin) using FAM-cyclic-3',5'-AMP as substrate
[17] = Half-life in Sprague-Dawley rat at 10 mg/kg, po measured after 24 hrs by LC-MS analysis; format: ADME, organism-based; conditions: in vivo
[18] = Tmax in Sprague-Dawley rat at 10 mg/kg, po measured after 24 hrs by LC-MS analysis; format: ADME, organism-based; conditions: in vivo
[19] = target: 3',5'-cyclic-AMP phosphodiesterase 4B (Homo sapiens, UniProt Q07343); experiment: Inhibition of PDE4B1 (unknown origin) using FAM-cyclic-3',5'-AMP as substrate incubated for 1 hrs by fluorescence polarization based IMAP assay
Mus musculus [20] = experiment: as §2, with “recovery of average speed” for “decrease in resting time”; format: functional, organism-based; conditions: dose 1-2.5 mg/kg, time 8702-8720 min
[21] = Selectivity ratio for inhibition of PDE3B (unknown origin) using FAM-cyclic-3',5'-AMP as substrate to inhibition of PDE4B1 (unknown origin) using FAM-cyclic-3',5'-AMP as substrate
[22] = target: cGMP-inhibited 3',5'-cyclic phosphodiesterase 3B (Homo sapiens) (UniProt Q13370); experiment: Inhibition of PDE3B (unknown origin) using FAM-cyclic-3',5'-AMP as substrate at 10 uM incubated for 1 hrs by fluorescence polarization based IMAP assay relative to control
[23] = Chemical stability of compound in aqueous solution at pH <6 measured after 48 hrs; format: physicochemical; conditions: buffer
Mus musculus [24] = experiment: as §1, with “decrease” for “reduction”, “ALT” for “TNF-alpha”, “absorbance based plate analyzer” for “ELISA”; format: functional, organism-based; conditions: dose 1-2.5 mg/kg, time 5.0 day
Mus musculus [25] = experiment: as §1, with “improvement of liver injury” for “reduction in serum TNF-alpha level”, “H&E staining based light microscopic analysis” for “ELISA”; format: functional, organism-based; conditions: dose 1-2.5 mg/kg, time 5.0 day
[26] = Selectivity ratio for inhibition of PDE9A (unknown origin) using FAM-cyclic-3',5'-AMP as substrate to inhibition of PDE4B1 (unknown origin) using FAM-cyclic-3',5'-AMP as substrate
HT-22 = experiment: Cytotoxicity against mouse HT-22 cells assessed as reduction in cell viability incubated for 48 hrs by MTT assay; format: toxicity, cell-based; conditions: ht-22, 48 h
[27] = Drug concentration in Sprague-Dawley rat plasma at 10 mg/kg, po administered as single dose for 1 hrs by LC-MS analysis; format: ADME, organism-based
[28] = target: High affinity cAMP-specific and IBMX-insensitive 3',5'-cyclic phosphodiesterase 8A (Homo sapiens) (UniProt O60658); experiment: Inhibition of PDE8A1 (unknown origin) using FAM-cyclic-3',5'-AMP as substrate at 10 uM incubated for 1 hrs by fluorescence polarization based IMAP assay relative to control
[29] = Oral bioavailability in Sprague-Dawley rat at 10 mg/kg measured after 24 hrs by LC-MS analysis; format: ADME, organism-based; conditions: in vivo
Mus musculus [30] = experiment: as §1, with “liver IL-6 mRNA” for “serum TNF-alpha”, “RT-qPCR analysis” for “ELISA”; format: functional, organism-based; conditions: dose 1-2.5 mg/kg, time 5.0 day
[31] = Volume of distribution at steady state in Sprague-Dawley rat at 2 mg/kg, iv measured after 24 hrs by LC-MS analysis; format: ADME, organism-based; conditions: in vivo, read-out: Vdss

T1 sequence (Q08499 whole entry): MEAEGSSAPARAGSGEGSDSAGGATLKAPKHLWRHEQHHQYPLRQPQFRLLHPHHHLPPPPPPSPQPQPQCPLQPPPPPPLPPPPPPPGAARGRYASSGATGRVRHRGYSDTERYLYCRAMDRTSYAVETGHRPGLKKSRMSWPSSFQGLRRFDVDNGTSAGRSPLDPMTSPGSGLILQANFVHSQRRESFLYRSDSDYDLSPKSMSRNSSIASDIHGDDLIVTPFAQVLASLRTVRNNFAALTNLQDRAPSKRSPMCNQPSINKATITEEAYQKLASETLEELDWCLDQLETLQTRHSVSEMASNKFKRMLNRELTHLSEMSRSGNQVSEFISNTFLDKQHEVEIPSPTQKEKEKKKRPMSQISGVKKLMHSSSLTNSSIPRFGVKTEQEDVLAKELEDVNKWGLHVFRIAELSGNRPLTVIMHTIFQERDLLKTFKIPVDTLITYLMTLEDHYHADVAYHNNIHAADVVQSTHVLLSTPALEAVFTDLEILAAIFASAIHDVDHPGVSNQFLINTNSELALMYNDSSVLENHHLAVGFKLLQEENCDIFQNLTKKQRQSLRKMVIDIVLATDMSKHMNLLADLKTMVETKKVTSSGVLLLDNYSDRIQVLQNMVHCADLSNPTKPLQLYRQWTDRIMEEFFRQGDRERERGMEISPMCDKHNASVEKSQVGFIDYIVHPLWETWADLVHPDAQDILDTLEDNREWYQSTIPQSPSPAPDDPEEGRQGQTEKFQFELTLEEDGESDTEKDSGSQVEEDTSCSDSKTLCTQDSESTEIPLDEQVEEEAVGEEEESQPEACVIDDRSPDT
Sequence of High affinity cAMP-specific and IBMX-insensitive 3',5'-cyclic phosphodiesterase 8A (Homo sapiens) (O60658 whole entry): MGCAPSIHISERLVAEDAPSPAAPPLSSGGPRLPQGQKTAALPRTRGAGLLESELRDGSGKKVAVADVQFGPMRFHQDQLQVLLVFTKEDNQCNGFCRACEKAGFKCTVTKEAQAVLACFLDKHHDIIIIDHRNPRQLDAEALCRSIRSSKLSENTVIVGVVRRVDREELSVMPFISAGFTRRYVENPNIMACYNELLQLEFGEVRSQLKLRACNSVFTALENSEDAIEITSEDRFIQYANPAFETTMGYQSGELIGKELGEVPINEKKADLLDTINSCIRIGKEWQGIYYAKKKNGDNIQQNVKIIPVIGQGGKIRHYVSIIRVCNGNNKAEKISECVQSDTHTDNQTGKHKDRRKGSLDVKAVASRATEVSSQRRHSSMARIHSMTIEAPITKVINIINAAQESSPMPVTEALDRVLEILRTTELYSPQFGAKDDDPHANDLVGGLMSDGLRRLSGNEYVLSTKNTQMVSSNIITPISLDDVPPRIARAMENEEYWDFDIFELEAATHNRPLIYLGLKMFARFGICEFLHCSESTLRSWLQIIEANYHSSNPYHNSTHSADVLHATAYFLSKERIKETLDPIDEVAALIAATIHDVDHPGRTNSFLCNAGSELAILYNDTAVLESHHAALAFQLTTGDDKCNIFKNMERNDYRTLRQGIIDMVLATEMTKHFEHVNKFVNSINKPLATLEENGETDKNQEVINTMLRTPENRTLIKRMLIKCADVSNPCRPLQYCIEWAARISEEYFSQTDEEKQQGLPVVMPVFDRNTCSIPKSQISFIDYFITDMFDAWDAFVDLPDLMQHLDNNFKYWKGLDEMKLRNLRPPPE
Sequence of cGMP-inhibited 3',5'-cyclic phosphodiesterase 3B (Homo sapiens) (Q13370 whole entry, looked up): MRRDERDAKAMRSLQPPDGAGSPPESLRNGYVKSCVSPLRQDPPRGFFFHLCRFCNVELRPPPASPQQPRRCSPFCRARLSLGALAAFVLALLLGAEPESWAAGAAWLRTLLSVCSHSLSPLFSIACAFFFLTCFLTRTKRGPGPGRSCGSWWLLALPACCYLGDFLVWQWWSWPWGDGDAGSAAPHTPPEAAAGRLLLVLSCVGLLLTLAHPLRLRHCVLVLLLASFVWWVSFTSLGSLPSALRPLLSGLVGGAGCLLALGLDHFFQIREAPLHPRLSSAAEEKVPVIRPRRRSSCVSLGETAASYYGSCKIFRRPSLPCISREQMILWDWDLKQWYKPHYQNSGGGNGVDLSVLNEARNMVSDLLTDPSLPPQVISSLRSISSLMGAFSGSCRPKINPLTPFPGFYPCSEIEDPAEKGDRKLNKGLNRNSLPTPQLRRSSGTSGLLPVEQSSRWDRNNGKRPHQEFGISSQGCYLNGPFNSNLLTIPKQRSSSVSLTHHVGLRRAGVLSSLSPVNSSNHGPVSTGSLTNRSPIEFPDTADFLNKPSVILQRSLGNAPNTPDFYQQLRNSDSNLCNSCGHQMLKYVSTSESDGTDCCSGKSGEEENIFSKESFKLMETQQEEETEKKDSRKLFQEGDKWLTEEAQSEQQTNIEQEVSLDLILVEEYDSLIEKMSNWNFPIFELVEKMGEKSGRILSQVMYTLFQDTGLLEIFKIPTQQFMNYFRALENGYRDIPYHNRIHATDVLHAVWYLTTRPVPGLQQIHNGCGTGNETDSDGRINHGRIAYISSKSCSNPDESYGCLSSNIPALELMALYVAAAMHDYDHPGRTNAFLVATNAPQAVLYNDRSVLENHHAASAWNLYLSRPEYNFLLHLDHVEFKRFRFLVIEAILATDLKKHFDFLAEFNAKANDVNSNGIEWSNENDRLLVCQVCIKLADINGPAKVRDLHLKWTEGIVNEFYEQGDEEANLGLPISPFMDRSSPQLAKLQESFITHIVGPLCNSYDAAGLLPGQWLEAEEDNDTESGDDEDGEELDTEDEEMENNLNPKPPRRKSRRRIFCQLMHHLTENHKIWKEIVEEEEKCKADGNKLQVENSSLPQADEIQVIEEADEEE
Sequence of 3',5'-cyclic-AMP phosphodiesterase 4B (Q07343 whole entry): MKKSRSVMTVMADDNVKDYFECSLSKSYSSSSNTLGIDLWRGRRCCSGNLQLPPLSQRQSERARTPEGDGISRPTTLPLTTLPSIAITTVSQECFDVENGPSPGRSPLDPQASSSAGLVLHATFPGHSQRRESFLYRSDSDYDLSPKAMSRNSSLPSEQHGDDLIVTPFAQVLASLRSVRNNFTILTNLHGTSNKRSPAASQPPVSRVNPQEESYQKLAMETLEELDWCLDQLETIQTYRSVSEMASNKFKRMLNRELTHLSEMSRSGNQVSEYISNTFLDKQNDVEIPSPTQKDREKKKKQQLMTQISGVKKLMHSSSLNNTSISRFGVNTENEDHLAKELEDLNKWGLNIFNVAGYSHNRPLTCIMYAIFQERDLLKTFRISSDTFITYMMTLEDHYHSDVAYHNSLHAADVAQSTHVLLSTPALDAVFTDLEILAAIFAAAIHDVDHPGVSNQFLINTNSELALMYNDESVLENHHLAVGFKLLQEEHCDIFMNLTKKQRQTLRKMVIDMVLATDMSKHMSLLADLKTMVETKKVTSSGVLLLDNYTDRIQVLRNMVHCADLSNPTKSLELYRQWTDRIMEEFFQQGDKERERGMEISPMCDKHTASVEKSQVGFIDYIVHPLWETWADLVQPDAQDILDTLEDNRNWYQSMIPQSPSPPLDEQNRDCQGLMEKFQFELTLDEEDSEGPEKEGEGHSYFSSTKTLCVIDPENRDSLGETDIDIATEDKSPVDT

Q: With `CCOc1nc(Cl)cc2c1cnn2CCCC(=O)O` as the compound, how does the Activity (Mus musculus [1]) read?
A: The Activity was “Active”.

Q: And the IC50 [2]?
A: The IC50 was 37.4 nM.

Q: And the Activity (Mus musculus [3])?
A: The Activity was “Active”.

Q: And the Activity (Mus musculus [4])?
A: Its Activity is “Active”.

Q: What about the Activity (Mus musculus [5]) of the same compound?
A: Its Activity is “Active”.

Q: What about the inhibition [6] of the same compound?
A: The inhibition was 72%.

Q: What about the Activity (Mus musculus [7]) of the same compound?
A: Its Activity is “Active”.

Q: And the concentration at 2 h [8]?
A: Its concentration at 2 h is 441 ng/g.

Q: What about the Activity (Mus musculus [9]) of the same compound?
A: The Activity was “Active”.

Q: And the Activity [10]?
A: The Activity was “Non-Toxic”.

Q: What about the Stability [11] of the same compound?
A: Its Stability is “Stable”.

Q: And the Activity [12]?
A: Its Activity is “Non-Toxic”.

Q: What about the half-life [13] of the same compound?
A: The half-life was 3.65 h.

Q: And the Activity (Mus musculus [14])?
A: Its Activity is “Active”.

Q: What about the Activity (Mus musculus [15]) of the same compound?
A: Its Activity is “Active”.

Q: And the Selectivity ratio [16]?
A: The Selectivity ratio was over 267.

Q: What about the half-life [17] of the same compound?
A: Its half-life is 9.3 h.

Q: What about the Tmax [18] of the same compound?
A: The Tmax was 4 h.

Q: And the IC50 [19]?
A: Its IC50 is 31 nM.

Q: What about the Activity (Mus musculus [20]) of the same compound?
A: The Activity was “Active”.

Q: And the Selectivity ratio [21]?
A: Its Selectivity ratio is over 267.

Q: What about the inhibition [22] of the same compound?
A: The inhibition was 10%.

Q: And the Stability [23]?
A: The Stability was “Stable”.

Q: What about the Activity (Mus musculus [24]) of the same compound?
A: Its Activity is “Active”.

Q: And the Activity (Mus musculus [25])?
A: The Activity was “Active”.

Q: What about the Selectivity ratio [26] of the same compound?
A: Its Selectivity ratio is over 267.

Q: And the Activity (HT-22)?
A: Its Activity is “Non-Toxic”.

Q: And the concentration at 1 h [27]?
A: The concentration at 1 h was 19500 ng/mL.

Q: What about the inhibition [28] of the same compound?
A: Its inhibition is 9%.

Q: What about the bioavailability [29] of the same compound?
A: The bioavailability was 94.1%.

Q: And the Activity (Mus musculus [30])?
A: The Activity was “Active”.

Q: What about the Vd [31] of the same compound?
A: Its Vd is 0.0719 L/kg.
